Assay results: US8163953B2, “Compounds for lysosomal modulation and methods of use” (University of Connecticut, priority 2008, dated 2012)
pEC50: −log10 of the molar value. “Also recorded” adds a separate entry of the source. Where two headings read alike, the source gives them in different places. Blank lines part the entries; values can stand above or below the molecule they belong to. Peptide text beside a SMILES is read from it. * marks the point of attachment. Cbz = O=C(OCc1ccccc1)*; CHN2 = [N-]=[N+]=C*

Key:
cathepsin = test: Cathepsin enhancement and synaptic marker recovery in a protein accumulation model; assay type: cell-based
Excerpt: Increased lysosomal enzyme activities are an indicator of cellular responses aimed at compensating for accumulating material. Evidence of compensatory up-regulation of lysosomal enzymes in response to lysosome stress and protein accumulation has led to the identification of a pharmacological avenue for promoting such responses. This pharmacological avenue has been used to identify and synthesize the compounds described herein, which are effective as lysosomal modulators. The base structures of PADK and Z-Phe-Phe-diazomethylketone (PPDK) were used for the design of new lysosomal modulators because PADK and PPDK enhance cathepsin levels at 0.3-10 μM, resulting in 70-80% recovery of synaptic markers that were lost in a protein accumulation model. Other modulators, including diazoacetyl-DL-2-aminohexanoic acid methyl ester, require up to 30 μM to produce neuroprotective effects, but result in only 24-42% synaptic recovery.

cathepsin D = test: Cathepsin D up-regulation in hippocampal slice cultures (immunoblot); assay type: cell-based; settings: for pEC50: increase of cathepsin D levels, slices treated daily for 3-6 days; for potency of increasing cathepsin D levels (in words) / EC2-fold (concentration needed for a 2-fold increase in cathepsin levels): hippocampal slice cultures; for potency of increasing cathepsin D levels (in words): treated daily 3-6 days
Method: The cultured slices were treated daily with different modulator concentrations for 3-6 days. […] BW1001 was not tested further due to its low potency.
The hippocampal slices were maintained in culture for 10-12 days to stabilize, then were treated daily with different modulator concentrations for 3 days. Then they were harvested rapidly in ice-cold buffer and homogenized in the presence of protease inhibitors.
Equal protein aliquots of the slice samples were subjected to immunoblotting to label the proform and the active form of cathepsin D (CD). FIG. 3A is an immunoblot showing PADK induced increases in the proform and active form of cathepsin D in hippocampal slice cultures. FIG. 3B is a graph showing the dose-dependent up-regulation of cathepsin D in hippocampal slice cultures by PADK and by BW1002.
Slices were treated daily for 3 days with 10 μM compound, then harvested rapidly for immunoblot assessment of active CD levels (ANOVA: P<0.0001). FIG. 5 is a bar graph showing the results of these tests. The data in FIG. 5 indicate that the non-peptide lysosomal modulators provide potent lysosomal modulation that enhances clearance of pathogenic accumulations. All data represent means±SEM.

[1] = test system: hippocampal slice cultures; test: LDH assay on media of treated slice cultures; settings: for LDH release: media samples from treated slice cultures
Method: (§4) Potential toxicity was tested by assessing synaptic markers and subjecting media samples from the treated slice cultures to a standard LDH assay.

[2] = test system: pre- and postsynaptic markers; test: Synaptic marker assessment in treated slice cultures
Method: as §4

[3] = test system: hippocampal slice cultures
Method: as §4

[4] = test system: pre- and postsynaptic markers
Method: as §4

[5] = test system: PDGF-APPSwInd transgenic mice; test: Synaptic protection in PDGF-APPSwInd transgenic mice (GluR1); assay type: in vivo; settings: daily i.p.; BW1005 45 mg/kg, BW1002 25 mg/kg
Method: Modulator BW1005, was administered daily i.p. into an Alzheimer's Disease model —PDGF-APPSwInd transgenic mice. The transgenic mice are hemizygotes for a mutant form of the human APP gene containing both the Swedish (K670N/M671L) and the Indiana (V717F) mutations (APPSwInd). […] Based on its potency in relation to PADK's effect in slices and mice, BW1005 was injected i.p. daily at a dose of 45 mg/kg.
The brains of the mice were dissected and assessed for the postsynaptic marker GluR1. […] FIG. 7 is a bar graph showing the mean GluR1 measure ±SEM for each group studied (post hoc test: p=0.05). […] Changes in cathepsin levels may explain the synaptic protection.

cathepsin B = test: In vivo lysosomal modulation by PADK in mice
Method: The enhanced cathepsin staining was evident in many brain regions and co-localized with the lysosomal marker LAMP-1.
(§1) The modulator PADK up-regulates cathepsins without causing adverse effects. Hippocampal homogenates were assessed for the mice. FIGS. 6A-D are graphs showing the effects of PADK doping on various biological and physical attributes of 10 month old mice.
(§2) FIG. 6D is a graph showing the results of motor skills and spatial memory tests. Motor skills and coordination were assessed using a variable-speed rotating rod and measuring the time the animal could remain moving on the rod. Spatial memory was tested with a conditions place preference (CPP) North-South paradigm in which the animal must remember where a previous reward was presented. Thus, the lysosomal modulation occurred in the absence of any evident effects on liver/kidney integrity, blood urea levels, or on normal brain functionality.

[6] = Adverse-effect assessment of PADK dosing in 10 month old mice; assay type: in vivo
Method: as §1, §2

[7] = test system: human paired helical filaments (PHFs); test: Chloroquine-induced hippocampal slice model of protein accumulation, PHF immunostaining; assay type: cell-based; settings: 6 days chloroquine, then 3 μM for 2 days
Excerpt: FIGS. 2A-C are immunostains of hippocampal slice cultures for human paired helical filaments (PHFs). The pathogenic PHF was undetectable in control tissue, FIG. 2A, whereas cellular accumulation of PHF was evident after 6 days of chloroquine treatment followed by 2 days of washout, FIG. 2B. […] Size bar: 16 μm.

[8] = test system: APPSwInd and APPswe/PS1ΔE9 mice; test: Synaptic markers in APPSwInd and APPswe/PS1ΔE9 mice treated with PADK; assay type: in vivo; settings: two Alzheimer's mouse models, immunoblot of homogenates
Method: To compare the BW1002/1005 results to previous PADK work, homogenate samples were analyzed by immunoblot for the presynaptic protein synapsin II and postsynaptic glutamatergic marker GluR1.

cathepsins B and D = settings: in vivo; cited from earlier work
APPSwInd mice = test: Rotarod performance of APPSwInd mice; assay type: in vivo; settings: trials on the 8th and 9th injection days
Method: (§3) The improvement of synaptic integrity by PADK was also associated with the reduction of behavioral deficits in the mouse models. FIG. 9C is a bar graph showing rotorod performance for several groups of mice. […] FIG. 9D is a bar graph illustrating spontaneous alternation behavior in the second type of Alzheimer's mouse model (APPswe/PS1ΔE9). APPswe/PS1ΔE9 mice treated with vehicle or PADK were tested on the hippocampal-dependent task of spontaneous alternation behavior in a T-maze. The mice were allowed to explore starting from the intersection of a T-maze, and were monitored for the order of entries into the three arms (arms A, B, and C). In control mice, every third explored arm is usually different than the previous two (e.g., A-B-C, B-A-C, etc.; the third decision being an alternation). Alzheimer's mice, on the other hand, frequently go back into one of the previous two arms explored (e.g., A-B-A, C-B-B), thus reducing the percent alternations. […] Open field mobility assessment confirmed no change in exploratory mobility across the different groups of mice.

APPswe/PS1ΔE9 mice = test: Spontaneous alternation behavior in a T-maze, APPswe/PS1ΔE9 mice; assay type: in vivo
Method: as §3

SMILES: CCCCC(NC(=O)C=[N+]=[N-])C(=O)OC (racemic) [diazoacetyl-DL-2-aminohexanoic acid methyl ester]
concentration required to produce neuroprotective effects (cathepsin): up to 30 μM

SMILES: C[C@H](NC(=O)[C@H](Cc1ccccc1)NC(=O)OCc1ccccc1)C(=O)C=[N+]=[N-] [PADK, Z-Phe-Ala-diazomethylketone]
immunostaining for the active form of cathepsin B in hippocampal cells (cathepsin B; 10-12-month old mice, 9 daily i.p. injections): dramatic increase in immunostaining
cathepsin levels in hippocampal homogenates (cathepsin B; 10 month old mice, across different dosages): dose-dependent increases in cathepsin levels
ALT (damage to liver function) [6]: no change in either ALT or BUN
BUN (kidney compromise) [6]: no change in either ALT or BUN
adverse effects on synaptic markers GluR1 and synaptophysin [6]: No adverse effects were evident
motor skills and coordination (variable-speed rotating rod) [6]: did not impair motor skills, coordination, or spatial memory
spatial memory (CPP North-South paradigm) [6]: did not impair motor skills, coordination, or spatial memory
clearance of chloroquine-induced PHF deposits in CA1 neurons [7]: clearance of most neuronal deposits of PHF material
LDH release [1]: did not cause synaptic decline or LDH release
GluR1 deficit [8]: significantly reduced the GluR1 deficit
EC2-fold (concentration needed for a 2-fold increase in cathepsin levels) (cathepsin D): 3.2 µM
pEC50 (cathepsin D; unit μm [sic]): 5.00
proform and active form of cathepsin D (cathepsin D; slices treated daily for 3 days, immunoblot): increased
rat brain levels of cathepsins B and D (cathepsins B and D): significant increases
synaptic decline (pre- and postsynaptic markers) [2]: did not cause synaptic decline or LDH release
Rotarod performance across trials (APPSwInd mice): enabled the APPSwInd mice to improve across Rotarod trials
spontaneous alternations (APPswe/PS1ΔE9 mice): significantly improved alternations

SMILES: [N-]=[N+]=CC(=O)[C@H](Cc1ccccc1)NC(=O)[C@H](Cc1ccccc1)NC(=O)OCc1ccccc1 [PPDK, Z-Phe-Phe-diazomethylketone] (Cbz-Phe-Phe-CHN2)
EC2-fold (concentration needed for a 2-fold increase in cathepsin levels) (cathepsin D): ~5 µM
pEC50 (cathepsin D; unit μm [sic]): 4.85

Second part, led by results:

pEC50 (cathepsin D): 4.70
SMILES: O=C(NC(Cc1ccccc1)[C@H](O)CNCc1ccccc1)OCc1ccccc1 (stereo partly drawn) [BW1001, (2R,3S)-3-Cbz amino-2-hydroxy-4-phenyl-1-benzyl amino butane]

pEC50 (cathepsin D): 5.52
SMILES: CC(=O)N(Cc1ccccc1)C[C@@H](O)C(Cc1ccccc1)NC(=O)OCc1ccccc1 (stereo partly drawn) [BW1002, (2R,3S)-3-Cbz amino-2-hydroxy-4-phenyl-1-(N-benzylacetamido) butane]
LDH release [1]: did not cause synaptic decline or LDH release
synaptic decline (pre- and postsynaptic markers) [2]: did not cause synaptic decline or LDH release

LDH release as % of maximal LDH release produced by total cellular disruption (1% TX-100) ([1]; after 6 days of treatment): < 2%
LDH release [1]: time-dependent increase in LDH activity
pEC50 (cathepsin D): 5.70
synaptic decline (pre- and postsynaptic markers) [2]: caused evident synaptic decline
SMILES: [N-]=[N+]=CC(=O)N(Cc1ccccc1)C[C@@H](O)[C@H](Cc1ccccc1)NC(=O)OCc1ccccc1 [BW1003, (2R,3S)-3-Cbz amino-2-hydroxy-4-phenyl-1-(N-benzyl-2-diazo-ethanamido) butane]

pEC50 (cathepsin D): 4.70
SMILES: CC(=O)N(Cc1cccc2ccccc12)C[C@@H](O)[C@H](Cc1ccccc1)NC(=O)OCc1ccccc1 [BW1004, (2R,3S)-3-Cbz amino-2-hydroxy-4-phenyl-1-(N-naphthylmethylethanamido) butane]
LDH release [3]: did not produce evident toxicity
synaptic decline (pre- and postsynaptic markers) [4]: did not produce evident toxicity
potency of increasing cathepsin D levels (in words) (cathepsin D): potencies at or near that of PADK

pEC50 (cathepsin D): 4.82
SMILES: O=C(NC(Cc1ccccc1)[C@H](O)CN(Cc1ccccc1)C(=O)c1ccccc1)OCc1ccccc1 (stereo partly drawn) [BW1005, (2R,3S)-3-Cbz amino-2-hydroxy-4-phenyl-1-(N-benzylbenzamide) butane]
LDH release [1]: did not cause synaptic decline or LDH release
potency of increasing cathepsin D levels (in words) (cathepsin D): potencies at or near that of PADK
synaptic decline (pre- and postsynaptic markers) [2]: did not cause synaptic decline or LDH release
synaptic protection: postsynaptic marker GluR1 in brain [5]: significant synaptic protection; also recorded: greater than that provided by PADK
